From patent US12419890B2, “Administration of sumo-activating enzyme inhibitor and checkpoint inhibitors” (Takeda Pharmaceutical Company Limited, priority 2019, dated 2025)

Molecular target: T1, SUMO-activating enzyme (Homo sapiens, UniProt Q9UBT2)
T1 sequence (Q9UBT2 1-640): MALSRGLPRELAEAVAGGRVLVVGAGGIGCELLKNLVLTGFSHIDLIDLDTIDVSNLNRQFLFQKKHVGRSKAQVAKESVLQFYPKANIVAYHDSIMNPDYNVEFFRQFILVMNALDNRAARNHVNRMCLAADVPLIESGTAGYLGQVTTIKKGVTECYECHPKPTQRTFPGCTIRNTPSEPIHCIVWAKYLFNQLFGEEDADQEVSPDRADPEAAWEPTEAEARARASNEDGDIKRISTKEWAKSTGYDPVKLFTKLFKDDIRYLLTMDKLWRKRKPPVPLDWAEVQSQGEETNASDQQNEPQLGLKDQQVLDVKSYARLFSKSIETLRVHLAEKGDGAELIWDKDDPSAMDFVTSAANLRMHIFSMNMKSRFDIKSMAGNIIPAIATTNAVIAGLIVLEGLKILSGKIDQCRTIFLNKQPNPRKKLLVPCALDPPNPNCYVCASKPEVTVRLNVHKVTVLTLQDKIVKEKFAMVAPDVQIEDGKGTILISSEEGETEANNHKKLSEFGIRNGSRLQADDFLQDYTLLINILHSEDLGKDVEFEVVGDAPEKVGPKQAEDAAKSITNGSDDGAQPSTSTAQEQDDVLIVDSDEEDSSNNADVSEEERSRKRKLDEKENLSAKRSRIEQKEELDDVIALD
T1 sequence (Q9UBE0 1-346 partner): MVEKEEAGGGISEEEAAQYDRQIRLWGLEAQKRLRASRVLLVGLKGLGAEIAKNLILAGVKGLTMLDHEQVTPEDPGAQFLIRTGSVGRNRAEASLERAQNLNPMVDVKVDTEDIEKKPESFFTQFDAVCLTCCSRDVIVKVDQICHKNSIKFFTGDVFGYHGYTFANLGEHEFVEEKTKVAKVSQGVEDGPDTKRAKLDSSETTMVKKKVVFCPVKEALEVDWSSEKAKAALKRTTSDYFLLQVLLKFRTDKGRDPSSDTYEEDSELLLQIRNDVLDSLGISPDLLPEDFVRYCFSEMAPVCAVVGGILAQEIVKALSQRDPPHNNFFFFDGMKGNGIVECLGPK
Test: biochemical assays of SUMO-activating enzyme
From the text: SAE inhibitors, as disclosed herein, are described, for example, in US 2016/0009744 and U.S. Pat. No. 9,695,154. They may be prepared by methods known to one skilled in the art and/or according to the methods described in US 2016/0009744 and U.S. Pat. No. 9,695,154, which is hereby incorporated by reference in its entirety. Central to the mechanism of action of useful SAE inhibitors, such as Compound I-263a, in combinations and methods of the present disclosure is production of type 1 IFNs and induction of an innate immune response with activation of dendritic cells, natural killer (NK) cells and macrophages.

inhibition of SUMO-activating enzyme activity (mechanism-based inhibitor forming a covalent adduct with SUMO): potently inhibits enzyme activity
selectivity for SUMO-activating enzyme (over ubiquitin-activating enzymes, Nedd8-activating enzyme, and autophagy related 7 enzyme): Strong selectivity
Structure (SMILES): Cc1sc(C(=O)c2cncnc2N[C@@H]2C[C@H](COS(N)(=O)=O)[C@@H](O)C2)cc1[C@@H]1NCCc2ccc(Cl)cc21 [Compound I-263a, [(1R,2S,4R)-4-{[5-({4-[(1R)-7-chloro-1,2,3,4-tetrahydroisoquinolin-1-yl]-5-methyl-2-thienyl}carbonyl)pyrimidin-4-yl]amino}-2-hydroxycyclopentyl]methyl sulfamate]
